Experimental data from patent US10010529B2, “Extended release pharmaceutical formulations with controlled impurity levels” (Ezra Pharma LLC, priority 2016, dated 2018).

What was measured:
[1] = in vivo; cited from earlier work
[2] = Compatibility study for valsartan related compound A (Impurity A), 2 weeks 60° C. closed glass vial; type: physicochemical
Procedure: Valsartan and valsartan solubilized in molten solubilizers as depicted in tables I and II respectively were subjected to compatibility studies at the following condition: • 2 weeks 60° C. closed glass vial Solubilized valsartan used for the study was prepared by melting the solubiliser/s (Kolliphor P 407, Kolliphor TPGS and combination thereof) in a beaker at water bath temperature 65° C. The drug was mixed with the molten solubiliser/s uniformly at water bath temperature 65° C. and the cooled mass was used in the studies. Levels of Impurity A were evaluated at the tabulated conditions as mentioned in Table III.

Impurity A level, 2 Weeks 60° C. Closed glass Vial ([2]; 2 weeks 60° C., closed glass vial): 0.05
generation of Valsartan R-isomer impurity (Impurity A), in words ([2]; conditions of the compatibility study): not generated
Impurity A level, Initial ([2]; initial): 0.03
SMILES: CCCCC(=O)N(Cc1ccc(-c2ccccc2-c2nnn[nH]2)cc1)[C@H](C(=O)O)C(C)C [Valsartan API, (S)—N-(1-oxopentyl)-N-[[2′-(1H-tetrazol-5-yl) [1,1′-biphenyl]-4-yl]methyl]-L-valine]
absolute bioavailability [1]: about 25%
